Experimental data published in patent publication US20060046966A1, “Antipicornaviral compounds and compositions, their pharmaceutical uses, and materials for their synthesis” (Agouron Pharmaceuticals, Inc., priority 1998, published 2006).
Read-outs that look alike come from different tables or passages of the source.

Columns and labels:
HRV (3) = assay: Antirhinoviral H1-HeLa cell culture assay, HRV serotype 3; type: cell-based, human rhinovirus; conditions: Human rhinovirus sp., H1-HeLa, H1-HeLa cells, XTT
Experimental: (§1) In this cell protection assay, the ability of compounds to protect cells against HRV infection was measured by the XTT dye reduction method, which is described in Weislow et al., J. Natl. Cancer Inst. 1989, vol. 81, 577-586.
(§2) H1-HeLa cells were infected with HRV-14 at a multiplicity of infection (m.o.i.) of 0.13 (virus particles/cell) or mock-infected with medium only. Infected or mock-infected cells were resuspended at 8×10^5 cells per mL, and incubated with appropriate concentrations of the compounds to be tested. Two days later, XTT/PMS was added to test plates and the amount of formazan produced was quantified spectrophotometrically at 450/650 nm. The EC50 value was calculated as the concentration of compound that increased the percentage of formazan production in compound-treated, virus-infected cells to 50% of that produced by compound-free, mock-infected cells. The 50% cytotoxic dose (CC50) was calculated as the concentration of compound that decreased the percentage of formazan produced in compound-treated, mock-infected cells to 50% of that produced by compound-free, mock-infected cells. The therapeutic index (TI) was calculated by dividing the CC50 value by the EC50 value.
(§3) All strains of human rhinovirus (HRV) for use in this assay were purchased from American Type Culture Collection (ATCC), except for HRV serotype-14 (produced from the infectious cDNA clone constructed by Dr. Robert Rueckert, Institute for Molecular Virology, University of Wisconsin, Madison, Wis.). HRV stocks were propagated and viral assays were performed in H1-HeLa cells (ATCC). Cells were grown in minimal essential medium with 10% fetal bovine serum, available from Life Technologies (Gaithersburg, Md.).
(§4) The compounds were tested against control compounds WIN 51711, WIN 52084, and WIN 54954 (obtained from Sterling-Winthrop Pharmaceuticals), Pirodavir (obtained from Janssen Pharmaceuticals), and Pleconaril (prepared according to the method described in Diana et al., J. Med. Chem 1995, vol. 38, 1355). […]

[1] = tested on: Coxsackievirus type A-21 (CAV-21); assay: Anticoxsackieviral cell culture assay, CAV-21; type: cell-based; conditions: 48 h, Strain CAV-21, H1-HeLa cells, two days, XTT, read-out: EC50
Experimental: Coxsackievirus types A-21 (CAV-21) and B3 (CVB-3) were purchased from American Type Culture Collection (ATCC, Rockville, Md.). Virus stocks were propagated and antiviral assays were performed in H1-HeLa cells (ATCC). Cells were grown in minimal essential medium with 10% fetal bovine serum (Life Technologies, Gaithersburg, Md.).
The ability of compounds to protect cells against either CAV-21 or CVB-3 infection was measured by the XTT dye reduction method. This method is described in Weislow et al., J. Natl. Cancer Inst. 1989, vol. 81, 577-586. H1-HeLa cells were infected with CAV-21 or CVB-3 at a multiplicity of infection (m.o.i.) of 0.025 or 0.075, respectively, or mock-infected with medium only. H1-HeLa cells were plated at 4×10^4 cells per well in a 96-well plate and incubated with appropriate concentrations of the test compound. One day (CVB-3) or two days (CAV-21) later, XTT/PMS was added to test plates and the amount of formazan produced was quantified spectrophotometrically at 450/650 nm. The EC50 was calculated as the concentration of compound that increased the formazan production in compound-treated, virus-infected cells to 50% of that produced by compound-free, uninfected cells. The 50% cytotoxic dose (CC50) was calculated as the concentration of compound that decreased formazan production in compound-treated, uninfected cells to 50% of that produced in compound-free, uninfected cells. The therapeutic index TI) was calculated by dividing the CC50 by the EC50.
The compounds were tested against control compounds WIN 54954 (obtained from Sterling-Winthrop Pharmaceuticals), Pirodavir (obtained from Janssen Pharmaceuticals), and Pleconaril (prepared according to Diana et al., J. Med. Chem. 1995, 38, 1355).

HRV (39) = assay: Antirhinoviral H1-HeLa cell culture assay, HRV serotype 39; type: cell-based, human rhinovirus; conditions: Human rhinovirus sp., H1-HeLa cells, XTT
Experimental: as §1, §2, §3, §4

HRV-14 = assay: Antirhinoviral H1-HeLa cell culture assay, HRV-14; type: cell-based, human rhinovirus; conditions: Rhinovirus B, HRV14, H1-HeLa, HRV serotype-14, H1-HeLa cells
Summary of the method: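 XTT cell-protection assay in H1-HeLa cells infected with rhinovirus or mock-infected, then incubated with compound for two days; formazan was read at 450/650 nm. EC50 is the concentration restoring infected-cell formazan to 50% of compound-free mock-infected cells; CC50 is the concentration halving formazan in mock-infected cells.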

HRV (30) = assay: Antirhinoviral H1-HeLa cell culture assay, HRV serotype 30; type: cell-based; conditions: Human rhinovirus sp., H1-HeLa cells, XTT
Experimental: as §1
as §2, with “value. […]” for “value.”

HRV (13) = assay: Antirhinoviral H1-HeLa cell culture assay, HRV serotype 13; type: cell-based, human rhinovirus; conditions: Human rhinovirus sp., H1-HeLa, H1-HeLa cells, XTT
Experimental: as §1, §2, §3, §4

HRV (89) = assay: Antirhinoviral H1-HeLa cell culture assay, HRV serotype 89; type: cell-based, human rhinovirus; conditions: Human rhinovirus sp., H1-HeLa cells, XTT
Experimental: as §1, §2, §3
(§5) The compounds were tested against control compounds WIN 51711, WIN 52084, and WIN 54954 (obtained from Sterling-Winthrop Pharmaceuticals), Pirodavir (obtained from Janssen Pharmaceuticals), and Pleconaril (prepared according to the method described in Diana et al., J. Med. Chem 1995, vol. 38, 1355). Antiviral data obtained for the test compounds are shown in Tables 1 and 3, where all data are for HRV serotype-14 unless otherwise noted in parentheses.

HRV (1A) = assay: Antirhinoviral H1-HeLa cell culture assay, HRV serotype 1A; type: cell-based; conditions: Human rhinovirus sp., H1-HeLa cells, XTT
Experimental: as §1, §2, §3, §5

HRV (17) = assay: Antirhinoviral H1-HeLa cell culture assay, HRV serotype 17; type: cell-based, human rhinovirus; conditions: Human rhinovirus sp., H1-HeLa cells, XTT
Experimental: as §1, §2, §3, §4

HRV (87) = assay: Antirhinoviral H1-HeLa cell culture assay, HRV serotype 87; type: cell-based; conditions: Human rhinovirus sp., H1-HeLa cells, XTT
Experimental: as §1
as §2, with “value. […]” for “value.”

Structure (SMILES): CCOC(=O)/C=C/[C@H](C[C@@H]1CCNC1=O)NC(=O)[C@@H](CC(=O)[C@@H](NC(=O)c1cc(C)on1)C(C)C)Cc1ccc(F)cc1 [Compound B-2, Ethyl-3-{(5′-Methylisoxazole-3′-carbonyl)-L-ValΨ(COCH2)-L-(4-F-Phe)-L-((S)-Pyrrol-Ala)}-E-Propenoate]
- EC50 (HRV (3)): 20 nM
- EC50 [1]: 160 nM
- EC50 (HRV (39)): 50 nM
- EC50 (HRV-14; Table 1, XTT dye reduction, read-out: Cell Protection EC50): 5 nM
- EC50 (HRV-14; Table 3, XTT, read-out: EC50): 5 nM
- EC50 (HRV (30)): 40 nM
- EC50 (HRV (13)): 10 nM
- EC50 (HRV (89)): 9 nM
- EC50 (HRV (1A)): 20 nM
- EC50 (HRV (17)): 10 nM
- EC50 (HRV (87)): 60 nM
